Source: US20250353873A1, “COMPOUNDS AND METHODS FOR MODULATING APOE EXPRESSION” (Ionis Pharmaceuticals, Inc., priority 2024, published 2025)
Strand notation (5' to 3'): a small letter for the sugar, then the base; units joined by * are phosphorothioate-linked, units joined directly phosphodiester-linked; [ ] holds rarer units or linkages, { } end groups; capitals alone tell only the bases. [ms] = mesyl phosphoramidate linkage; k = constrained ethyl (cEt); [5mC] = 5-methylcytosine; d = 2'-deoxy (DNA)

Key:
human APOE RNA [1] = experiment: Duration of action study in APOE C57BL/6NTac-Apoeem7250 knock-in mice (Example 16); assay type: in vivo; conditions: 300 μg ICV
Method: Modified oligonucleotides described above were tested in the APOE C57BL/6NTac-Apoeem7250 knock-in mouse model described above.
APOE C57BL/6NTac-Apoeem7250 knock-in mice were divided into groups of 2-4 mice each. Each mouse received a single intracerebroventricular (ICV) bolus of 300 μg of modified oligonucleotide. A group of 2-4 mice received a single ICV bolus with PBS as a negative control.
Mice were sacrificed at various timepoints as indicated in the table below and RNA was extracted from cortical brain tissue and spinal cord for quantitative real-time RT-PCR analysis of RNA expression of APOE using primer probe set RTS3073 (described herein above). APOE RNA levels were normalized to mouse Ppia. Mouse Ppia was amplified using primer probe set m_cyclo24 (described herein above). Results are presented as percent human APOE RNA relative to the amount of human APOE RNA in PBS treated animals, (% control). Each experiment is identified in separate tables below.

human APOE RNA [2] = experiment: Activity in APOE C57BL/6NTac-Apoeem7250 knock-in mice, single ICV bolus, 8 weeks (Example 11); assay type: in vivo; conditions: single ICV bolus 300 μg, 8 weeks post treatment, normalized to mouse Ppia
In short: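 Human APOE knock-in C57BL/6NTac mice given one ICV bolus of 300 μg oligonucleotide; PBS-dosed group as control. At 8 weeks, cortex and spinal cord RNA measured by qRT-PCR (human probe RTS3073), normalized to mouse Ppia, expressed as % of PBS control.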

human APOE RNA [3] = experiment: Dose-dependent inhibition of human APOE RNA in HepG2 cells, electroporation, 50,000 cells per well, RT-PCR normalized to GAPDH (Example 4, Tables 8-10); assay type: cell-based; conditions: HepG2, electroporation, 24-hour treatment
In short: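 HepG2 cells, 50,000 per well, electroporated with modified oligonucleotide at various concentrations. APOE RNA quantified by RT-PCR with human primer probe set RTS3073, normalized to GAPDH. Values are percent APOE RNA relative to untreated control cells.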

human APOE RNA [4] = experiment: Activity in APOE C57BL/6NTac-Apoeem7250 knock-in mice, single ICV bolus, 4 weeks (Example 10); assay type: in vivo; conditions: single ICV bolus 300 μg, 4 weeks post treatment, normalized to mouse Ppia
In short: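 Knock-in mice (2–4 per group) received one 300 μg ICV bolus of oligonucleotide or PBS. After four weeks, human APOE RNA in cortex and spinal cord measured by RT-qPCR (primer probe set RTS3073), normalized to mouse Ppia, expressed as % of PBS controls.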

Substance | APOE RNA (% control) Cortex (human APOE RNA [1]; 112 days post-dose) [% control] | APOE RNA (% control) Cortex (human APOE RNA [1]; 140 days post-dose) [% control] | APOE RNA (% control) Spinal Cord (human APOE RNA [1]; 112 days post-dose) [% control] | APOE RNA (% control) Spinal Cord (human APOE RNA [1]; 140 days post-dose) [% control] | APOE RNA (% control) Cortex (human APOE RNA [2]) [% control] | APOE RNA (% control) Spinal Cord (human APOE RNA [2]) [% control] | APOE RNA (% UTC) (human APOE RNA [3]; 5 nM) | APOE RNA (% UTC) (human APOE RNA [3]; 13 nM) | APOE RNA (% UTC) (human APOE RNA [3]; 33 nM) | APOE RNA (% UTC) (human APOE RNA [3]; 82 nM) | APOE RNA (% UTC) (human APOE RNA [3]; 205 nM) | APOE RNA (% UTC) (human APOE RNA [3]; 512 nM) | APOE RNA (% UTC) (human APOE RNA [3]; 1,280 nM) | APOE RNA (% UTC) (human APOE RNA [3]; 3,200 nM) | APOE RNA (% UTC) (human APOE RNA [3]; 8,000 nM) | APOE RNA (% UTC) (human APOE RNA [3]; 20,000 nM) | IC50 (human APOE RNA [3]) [nM] | APOE RNA (% control) Cortex (human APOE RNA [4]) [% control] | APOE RNA (% control) Spinal Cord (human APOE RNA [4]) [% control]
1746800 (k[5mC]*dT[ms]kT*dG[ms]dG[ms]kT*dG[ms]dA[ms]dA[ms]dT*d[5mC]*dT*dT*dT*dA[ms]dT*kT*dA[ms]kA*kA; antisense) [Compound 1746800] | 52 | 75 | 88 | 58 | 40 | 30 | 108 | 111 | 137 | 115 | 97 | 77 | 87 | 39 | 35 | 8 | 3270 | 41 | 40
1747050 (k[5mC]*kT*kT*dG[ms]dG[ms]kT*dG[ms]dA[ms]dA[ms]dT*d[5mC]*dT*dT*dT*dA[ms]dT*kT*dA[ms]dA[ms]kA; antisense) [Compound 1747050] | 63 | 74 | 93 | 86 | 36 | 23 | 182 | 135 | 115 | 111 | 110 | 76 | 49 | 31 | 14 | 10 | 1540 | 29 | 45
1746799 (k[5mC]*dT[ms]kT*dG[ms]kG*dT[ms]dG[ms]dA[ms]dA[ms]dT*d[5mC]*dT*dT*dT*dA[ms]dT*kT*dA[ms]kA*kA; antisense) [Compound 1746799] | 46 | 70 | 78 | 66 | 45 | 39 | 115 | 130 | 153 | 125 | 106 | 84 | 52 | 23 | 24 | 33 | 1740 | 47 | 42
1746811 (k[5mC]*dT[ms]dT[ms]kG*kG*dT[ms]dG[ms]dA[ms]dA[ms]dT*d[5mC]*dT*dT*dT*dA[ms]dT*dT[ms]kA*kA*kA; antisense) [Compound 1746811] | 71 | 89 | 95 | 103 | – | – | 99 | 86 | 83 | 95 | 70 | 54 | 47 | 23 | 12 | 5 | 740 | 61 | 62
1746790 (k[5mC]*dT[ms]kT*dG[ms]dG[ms]kT*dG[ms]dA[ms]dA[ms]dT*d[5mC]*dT*dT*dT*dA[ms]dT*kT*kA*dA[ms]kA; antisense) [Compound 1746790] | 75 | 77 | 62 | 108 | – | – | 104 | 133 | 94 | 112 | 89 | 63 | 20 | 24 | 15 | 8 | 750 | 53 | 61
1746803 (k[5mC]*dT[ms]dT[ms]kG*dG[ms]kT*dG[ms]dA[ms]dA[ms]dT*d[5mC]*dT*dT*dT*dA[ms]dT*kT*dA[ms]kA*kA; antisense) [Compound 1746803] | 54 | 73 | 74 | 82 | – | – | 93 | 83 | 84 | 114 | 68 | 61 | 31 | 29 | 22 | 39 | 1100 | 51 | 39
1746801 (k[5mC]*dT[ms]dT[ms]kG*kG*dT[ms]dG[ms]dA[ms]dA[ms]dT*d[5mC]*dT*dT*dT*dA[ms]dT*kT*dA[ms]kA*kA; antisense) [Compound 1746801] | 47 | 67 | 70 | 138 | – | – | 93 | 98 | 114 | 99 | 76 | 56 | 33 | 11 | 14 | 2 | 670 | 58 | 44
